Our source for the DC50, Dmax and IC50 values is patent publication US20260265271A1, “Cereblon Ligands and Uses Thereof” (REGENTS OF THE UNIVERSITY OF MICHIGAN, priority 2022, published 2026).

For one experiment, the target named is T1, IKZF2 (Homo sapiens, UniProt Q96SW2+Q9UKS7).
T1 construct: host or cells: Jurkat-IKZF2-HiBiT
Put plainly: IKZF2 HiBiT degradation assay (Jurkat-IKZF2-HiBiT). The format is cell-based. Here is the method: Degradation of IKZF2 protein was determined by IKZF2 HiBiT assay using the Jurkat-IKZF2-HiBiT (Promega) cell line. […] Compounds were serially diluted in culture medium, and 20 μl of the diluted compounds were added to the appropriate wells of the plate. After the addition of compounds, the cells were incubated at 37° C. in an atmosphere of 5% CO2 for 24 hours. At the end of treatment, 40 ul of Nano-Glo HiBiT Lytic Detection Reagent (Promega) was added to each well, and then the plates were incubated at room temperature for 10-20 minutes. The luminescent signal was measured using a CALRIOstar plate reader (BMG Labtech). The readings were normalized to the DMSO-treated cells and the IC50 was calculated by nonlinear regression (four parameters sigmoid fitted with variable slope, least squares fit, and no constraint) analysis using the GraphPad Prism 8 software.

Experiment [1] has as its target wild-type human CRBN protein (Homo sapiens, UniProt Q96SW2). Put plainly: biochemical.
Method: The binding to cereblon (CRBN) was determined using the Cereblon Binding Kit (Cisbio, #64BDCRBNPEG) following the manufacturer's instruction. Briefly, serially diluted compounds were incubated with GST-tagged wild-type human CRBN protein, XL665-labelled Thalidomide and Europium Cryptate labelled GST antibody at room temperature for about 3 hours.
The target of a further experiment is CRBN/DDB1 (Homo sapiens, UniProt Q96SW2). The experiment can be described thus: biochemical.
Sequence of CRBN/DDB1 (Q96SW2 whole entry): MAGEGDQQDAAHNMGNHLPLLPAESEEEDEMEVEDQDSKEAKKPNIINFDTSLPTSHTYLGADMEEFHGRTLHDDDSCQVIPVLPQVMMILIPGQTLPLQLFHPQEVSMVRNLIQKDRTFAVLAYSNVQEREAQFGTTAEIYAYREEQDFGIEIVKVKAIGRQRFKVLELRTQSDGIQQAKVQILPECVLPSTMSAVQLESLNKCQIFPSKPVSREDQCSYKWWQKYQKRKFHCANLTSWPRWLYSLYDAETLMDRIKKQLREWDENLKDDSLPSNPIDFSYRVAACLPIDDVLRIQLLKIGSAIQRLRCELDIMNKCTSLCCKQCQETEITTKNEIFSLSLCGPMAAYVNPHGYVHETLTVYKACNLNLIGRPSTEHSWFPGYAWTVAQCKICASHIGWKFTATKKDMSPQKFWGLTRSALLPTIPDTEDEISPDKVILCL
Sequence of CRBN/DDB1 (Q16531 whole entry, further chain): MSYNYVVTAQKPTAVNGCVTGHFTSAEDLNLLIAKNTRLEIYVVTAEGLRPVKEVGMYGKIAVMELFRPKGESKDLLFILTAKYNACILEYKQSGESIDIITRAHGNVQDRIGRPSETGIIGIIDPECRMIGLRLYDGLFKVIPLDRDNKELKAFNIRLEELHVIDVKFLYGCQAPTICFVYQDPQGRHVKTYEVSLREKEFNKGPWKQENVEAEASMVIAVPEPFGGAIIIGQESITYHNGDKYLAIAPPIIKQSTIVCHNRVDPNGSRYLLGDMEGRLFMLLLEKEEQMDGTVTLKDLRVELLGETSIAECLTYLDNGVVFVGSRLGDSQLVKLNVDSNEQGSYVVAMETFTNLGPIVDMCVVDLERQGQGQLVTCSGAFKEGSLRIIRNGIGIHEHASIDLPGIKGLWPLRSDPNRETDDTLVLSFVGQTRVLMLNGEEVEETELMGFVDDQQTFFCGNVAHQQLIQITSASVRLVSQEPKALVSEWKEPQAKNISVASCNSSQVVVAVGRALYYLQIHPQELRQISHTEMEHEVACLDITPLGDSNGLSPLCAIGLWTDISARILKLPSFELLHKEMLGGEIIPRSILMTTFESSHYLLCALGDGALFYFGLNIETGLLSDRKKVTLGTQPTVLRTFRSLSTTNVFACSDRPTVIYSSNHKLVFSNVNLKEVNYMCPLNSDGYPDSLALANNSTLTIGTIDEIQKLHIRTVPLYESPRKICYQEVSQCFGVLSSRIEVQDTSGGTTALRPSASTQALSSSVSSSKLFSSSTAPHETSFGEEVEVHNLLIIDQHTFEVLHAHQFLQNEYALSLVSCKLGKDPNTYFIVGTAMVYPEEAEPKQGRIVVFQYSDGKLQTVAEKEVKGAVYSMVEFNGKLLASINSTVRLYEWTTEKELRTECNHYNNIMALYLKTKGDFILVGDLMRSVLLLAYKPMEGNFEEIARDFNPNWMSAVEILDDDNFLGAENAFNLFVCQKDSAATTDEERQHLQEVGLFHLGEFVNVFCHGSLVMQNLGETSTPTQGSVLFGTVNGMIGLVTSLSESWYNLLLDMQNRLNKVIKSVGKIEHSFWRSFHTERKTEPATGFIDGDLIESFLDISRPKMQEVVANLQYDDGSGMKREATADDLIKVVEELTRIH
In another experiment the target is ER (Homo sapiens, UniProt P03372). Put plainly: ER degradation by in-cell western (ICW), MCF7 cells. The experiment is classed as cell-based. More on the design: endogenous in cells; host or cells: MCF-7. Particulars: for DC50: MCF7 cells, ER in-cell western, 16 hours. Here is the method:
ERa degradative activity of compounds can be assessed in MCF-7 and T47D Cells. MCF-7 and T47D cell are seeded and are subsequently treated with the compounds at certain concentrations (e.g., 0.02 to 300 nM). DMSO can be used as vehicle control. Cells are fixed and are blocked with Intercept (PBS) Blocking Buffer (e.g., Li—COR, Odyssey Blocking Buffer), and are stained with ER (e.g., 1:500, Cell signaling) primary antibody for overnight at cold room. Secondary Antibody (e.g., IRDye 800CW Goat anti-Rabbit IgG) and CellTag 700 Stain are added in Intercept (PBS) Blocking Buffer. Finally, cell plate is placed in incubator to dry. Image and signal were captured on Odyssey@DLx Imaging System.
In-cell western blot analysis. Cells are seeded in multi-well plates (e.g., at 40,000 or 10,000 cells/well). Diluted compounds at certain concentration are added (final 0.5% DMSO) and cells are incubated for certain period of time (e.g., 16 hours). Formaldehyde (e.g., PBS:FA=9:1) is added and followed by washing with PBS. The cells are blocked with Licor blocking buffer (Li-Cor). The relative ER percentage in treated cells were obtained by comparing the values of treated wells to those in untreated and DMSO-treated wells as 100%.
In-cell western blot analysis. a. seed cells in black-sided/clear bottom 96- or 384-well plates at 40,000 or 10,000 cells/well, overnight; b. add diluted compounds (final 0.5% DMSO), 16 hours. […] RT 2 h, gentle shaking. Negative control: cells plus secondary antibodies (no primary antibodies); e. wash×4 with PBS +0.05-0.1% Tween 20, gentel shaking; f. anti-rabbit-680 and anti-mouse-800 (both 1:1000 in LiCor block +0.05% Tween20, RT 1 h, gentle shaking, no light. LI-COR: 0.2% to reduce background; g. wash×4 with PBS+0.05% Tween 20, gental shaking; h. add 100 μL or 25 μL of PBS to each well and read on CLX plate reader. The relative ER percentage in treated cells were obtained by comparing the values of treated wells to those in untreated and DMSO-treated wells as 100%.

Counter-ions that a name gives are not always drawn.

Sequence of ER (P03372 whole entry): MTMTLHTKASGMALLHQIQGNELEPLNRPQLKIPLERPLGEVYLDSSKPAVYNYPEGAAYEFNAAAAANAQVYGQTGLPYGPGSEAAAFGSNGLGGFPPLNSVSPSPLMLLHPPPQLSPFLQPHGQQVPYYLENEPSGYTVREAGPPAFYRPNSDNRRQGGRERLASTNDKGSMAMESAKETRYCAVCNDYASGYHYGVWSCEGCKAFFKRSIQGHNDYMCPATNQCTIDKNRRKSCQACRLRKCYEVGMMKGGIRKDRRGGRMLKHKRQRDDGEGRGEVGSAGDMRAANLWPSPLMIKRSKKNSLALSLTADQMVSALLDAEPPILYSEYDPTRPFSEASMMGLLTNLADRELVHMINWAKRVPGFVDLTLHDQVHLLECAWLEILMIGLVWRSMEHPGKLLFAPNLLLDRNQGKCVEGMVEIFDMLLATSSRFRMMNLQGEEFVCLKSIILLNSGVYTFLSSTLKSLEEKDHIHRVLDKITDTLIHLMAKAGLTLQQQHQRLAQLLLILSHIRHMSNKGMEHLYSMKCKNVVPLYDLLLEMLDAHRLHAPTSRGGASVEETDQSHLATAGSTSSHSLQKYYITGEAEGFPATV
Sequence of wild-type human CRBN protein (Q96SW2 whole entry): as the sequence (Q96SW2 whole entry) above
T1 sequence (Q9UKS7 whole entry): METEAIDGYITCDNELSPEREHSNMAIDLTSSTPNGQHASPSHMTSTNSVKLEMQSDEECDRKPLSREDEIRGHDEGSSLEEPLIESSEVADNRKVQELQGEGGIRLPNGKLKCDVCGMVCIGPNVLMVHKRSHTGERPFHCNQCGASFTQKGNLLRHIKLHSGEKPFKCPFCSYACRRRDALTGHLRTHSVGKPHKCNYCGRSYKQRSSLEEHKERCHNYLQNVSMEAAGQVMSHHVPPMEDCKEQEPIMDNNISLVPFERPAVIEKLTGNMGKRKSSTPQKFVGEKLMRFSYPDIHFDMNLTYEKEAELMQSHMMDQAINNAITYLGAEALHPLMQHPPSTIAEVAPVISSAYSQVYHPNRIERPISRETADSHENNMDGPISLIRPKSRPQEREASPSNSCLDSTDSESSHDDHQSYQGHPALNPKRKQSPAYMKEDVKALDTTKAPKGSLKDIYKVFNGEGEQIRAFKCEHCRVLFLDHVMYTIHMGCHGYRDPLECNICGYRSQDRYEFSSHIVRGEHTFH
T1 sequence (Q96SW2 whole entry): as the sequence (Q96SW2 whole entry) above
T1 sequence (Q16531 2-1140 partner limits assumed): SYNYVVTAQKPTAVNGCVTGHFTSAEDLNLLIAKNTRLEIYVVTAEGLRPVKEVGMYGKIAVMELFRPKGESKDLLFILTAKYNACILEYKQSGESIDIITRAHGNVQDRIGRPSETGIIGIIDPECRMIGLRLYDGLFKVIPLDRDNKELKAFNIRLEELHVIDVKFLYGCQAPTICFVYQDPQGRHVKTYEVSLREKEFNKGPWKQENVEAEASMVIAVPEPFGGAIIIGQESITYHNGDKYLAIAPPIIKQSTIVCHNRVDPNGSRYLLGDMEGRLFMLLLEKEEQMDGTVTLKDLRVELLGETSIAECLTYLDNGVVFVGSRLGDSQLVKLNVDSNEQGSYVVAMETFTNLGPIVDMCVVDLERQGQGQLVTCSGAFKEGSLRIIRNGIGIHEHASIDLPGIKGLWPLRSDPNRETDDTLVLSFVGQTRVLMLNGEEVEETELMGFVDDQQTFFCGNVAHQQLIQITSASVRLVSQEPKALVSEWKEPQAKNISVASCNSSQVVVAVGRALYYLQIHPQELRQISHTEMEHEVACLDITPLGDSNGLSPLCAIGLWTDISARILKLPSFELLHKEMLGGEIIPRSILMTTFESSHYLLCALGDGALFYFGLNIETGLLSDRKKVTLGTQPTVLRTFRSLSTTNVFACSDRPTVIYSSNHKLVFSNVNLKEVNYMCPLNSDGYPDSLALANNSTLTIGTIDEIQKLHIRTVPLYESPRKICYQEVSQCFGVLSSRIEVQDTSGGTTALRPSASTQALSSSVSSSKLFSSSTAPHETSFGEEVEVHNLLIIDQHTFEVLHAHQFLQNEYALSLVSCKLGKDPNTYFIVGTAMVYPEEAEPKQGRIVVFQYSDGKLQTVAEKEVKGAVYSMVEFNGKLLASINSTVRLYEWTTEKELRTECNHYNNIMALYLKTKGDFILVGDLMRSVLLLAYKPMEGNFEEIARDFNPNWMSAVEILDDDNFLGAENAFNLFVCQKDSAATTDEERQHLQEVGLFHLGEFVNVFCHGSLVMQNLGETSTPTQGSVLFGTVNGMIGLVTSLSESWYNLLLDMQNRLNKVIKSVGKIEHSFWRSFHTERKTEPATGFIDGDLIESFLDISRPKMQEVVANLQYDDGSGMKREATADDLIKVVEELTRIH
Method for CRBN/DDB1: The CRBN-DDB1 binding potency of the present disclosure was determined using HTRF assay technology (Perkin Elmer). Compounds are serially diluted and are transferred multi-well plate. […] After one hour incubation at room temperature, the HTRF signals were read on Envision reader (Perkin Elemer).
The binding potency was determined using HTRF assay technology (Perkin Elmer). Compounds were serially diluted in DMSO and 0.2 μL volume was transferred to white 384-well plate. […] After one hour incubation at room temperature, the HTRF signals were read on Envision reader (Perkin Elemer).

For `O=C1CCC(N2Cc3cc4c(cc3C2=O)OC[C@@H]2CN(Cc3ccc(F)cc3)CCN42)C(=O)N1` (stereo partly drawn) [Compound C19, 3-((S)-3-(4-fluorobenzyl)-8-oxo-1,2,3,4,4a,5,8,10-octahydro-9H-pyrazino[1′,2′:4,5][1,4]oxazino[2,3-f]isoindol-9-yl)piperidine-2,6-dione], the DC50 at IKZF2 (read-out: IKZF2 degradation DC50, Jurkat-IKZF2-HiBiT cells, 24 hours) was above 2000 nM. Also, the Dmax at IKZF2 (read-out: IKZF2 degradation Dmax (%)) stood at 0%. Besides, the IC50 in experiment [1] was determined as 330 nM.

`CC(C)(C)OC(=O)N1CCN2c3cc4c(cc3OC[C@@H]2C1)C(=O)N(C1CCC(=O)NC1=O)C4` (stereo partly drawn) [Compound A3, tert-butyl (4aS)-9-(2,6-dioxopiperidin-3-yl)-8-oxo-1,2,4a,5,9,10-hexahydro-8H-pyrazino[1′,2′:4,5][1,4]oxazino[2,3-f]isoindole-3(4H)-carboxylate] yielded an IC50 on CRBN/DDB1 of 330 nM.

Molecule `O=C1CC[C@H](N2Cc3cc4c(cc3C2=O)OC[C@@H]2CNCCN42)C(=O)N1` [Compound A8, (S)-3-((S)-8-oxo-3,4,4a,5-tetrahydro-1H-pyrazino [1′,2′:4,5][1,4]oxazino[2,3-f]isoindol-9(2H,8H,10H)-yl)piperidine-2,6-dione hydrochloride] had an IC50 at CRBN/DDB1 of 430 nM.

Consider `O=C1CC[C@@H](N2Cc3cc4c(cc3C2=O)OC[C@H]2CN(CC3CCC5(CC3)CN(c3ccc([C@H]6c7ccc(O)cc7OC[C@H]6c6ccccc6)cc3)C5)CCN42)C(=O)N1` [CHR-A118, (R)-3-((R)-3-((2-(4-((3R,4S)-7-hydroxy-3-phenylchroman-4-yl)phenyl)-2-azaspiro[3.5]nonan-7-yl)methyl)-8-oxo-1,2,3,4,4a,5,8,10-octahydro-9H-pyrazino[1′,2′:4,5][1,4]oxazino[2,3-f]isoindol-9-yl)piperidine-2,6-dione], for which, at ER, the DC50 was in the range of 1 to 10 nM.

At CRBN/DDB1, `CN1CCN2c3cc(F)c(C(=O)N[C@H]4CCC(=O)NC4=O)cc3OC[C@@H]2C1` [Compound A2, (S)—N—((S)-2,6-dioxopiperidin-3-yl)-9-fluoro-3-methyl-1,2,3,4,4a,5-hexahydrobenzo[b]pyrazino[1,2-d][1,4]oxazine-8-carboxamide] gave an IC50 of 3640 nM.

Regarding `O=C1CC[C@H](N2Cc3cc4c(cc3C2=O)OC[C@@H]2CN(CC3CC5(CCN(c6ccc([C@@H]7c8ccc(O)cc8OC[C@@H]7c7ccccc7)cc6)CC5)C3)CCN42)C(=O)N1` [CHR-A59, (S)-3-((S)-3-((7-(4-((3S,4R)-7-hydroxy-3-phenylchroman-4-yl)phenyl)-7-azaspiro[3.5]nonan-2-yl)methyl)-8-oxo-1,2,3,4,4a,5,8,10-octahydro-9H-pyrazino[1′,2′:4,5][1,4]oxazino[2,3-f]isoindol-9-yl)piperidine-2,6-dione], the Dmax on ER (MCF7, read-out: MCF7 Dmax (%)) lay in the range of 50 to 75%. In addition, the DC50 at ER was 1 to 10 nM.

For the molecule `O=C1CC[C@H](NC(=O)c2cc3c(cc2F)N2CCNC[C@H]2CO3)C(=O)N1` [Compound A1, (S)—N—((S)-2,6-dioxopiperidin-3-yl)-9-fluoro-1,2,3,4,4a,5-hexahydrobenzo[b]pyrazino[1,2-d][1,4]oxazine-8-carboxamide hydrochloride], the IC50 at CRBN/DDB1 was determined as 21800 nM.

In experiment [1], `CC(C)(C)OC(=O)N1CCN2c3cc4c(cc3OC[C@@H]2C1)C(=O)N([C@@H]1CCC(=O)NC1=O)C4` [Compound B4, (R)-tert-butyl (4aS)-9-(2,6-dioxopiperidin-3-yl)-8-oxo-1,2,4a,5,9,10-hexahydro-8H-pyrazino[1′,2′:4,5][1,4]oxazino[2,3-f]isoindole-3(4H)-carboxylate] came in with an IC50 of 3500 nM.

`CN1CCN2c3cc4c(cc3N(C)C[C@@H]2C1)C(=O)N(C1CCC(=O)NC1=O)C4` (stereo partly drawn) [Compound B8, 3-((S)-3,6-dimethyl-8-oxo-2,3,4,4a,5,6,8,10-octahydropyrazino[1,2-a]pyrrolo[3,4-g]quinoxalin-9(1H)-yl)piperidine-2,6-dione] had an IC50 in experiment [1] of 940 nM.

In turn, `CC(=O)N1CCN2c3ccc4c(c3OC[C@@H]2C1)CN([C@H]1CCC(=O)NC1=O)C4=O` [Compound C10, (S)-3-((S)-7-acetyl-1-oxo-1,3,5,5a,6,7,8,9-octahydro-2H-pyrazino[1′,2′:4,5][1,4]oxazino[2,3-e]isoindol-2-yl)piperidine-2,6-dione] had an IC50 in experiment [1] of 200 nM.
